Experimental data reported in patent publication US8952162B2, “Triazolopyridines as phosphodiesterase inhibitors for treatment of dermal diseases” (Leo Pharma A/S, priority 2008, dated 2015).

Molecular target: Human recombinant PDE4 (Genbank accession no NM—006203) (Homo sapiens, UniProt Q08499)
Experiment: PDE4 assay (SPA, cAMP cleavage)
Assay type: biochemical
Conditions: Example 52; human recombinant PDE4, 1 hour incubation, cAMP 1×10^-5M, test compound up to 10 μM; read-out: PDE4 IC50 range
Procedure: At the end of the incubation, the cleavage of the substrate was evaluated by the binding of the AMP product to SPA beads, which generate chemoluminescence when bound to the radioactive tracer. The AMP product inhibited the binding of the radioactive tracer to the beads, and the luminescent signal was competed.

Chain of Human recombinant PDE4 (Genbank accession no NM—006203) (Q08499 1-673 isoform Q08499-2): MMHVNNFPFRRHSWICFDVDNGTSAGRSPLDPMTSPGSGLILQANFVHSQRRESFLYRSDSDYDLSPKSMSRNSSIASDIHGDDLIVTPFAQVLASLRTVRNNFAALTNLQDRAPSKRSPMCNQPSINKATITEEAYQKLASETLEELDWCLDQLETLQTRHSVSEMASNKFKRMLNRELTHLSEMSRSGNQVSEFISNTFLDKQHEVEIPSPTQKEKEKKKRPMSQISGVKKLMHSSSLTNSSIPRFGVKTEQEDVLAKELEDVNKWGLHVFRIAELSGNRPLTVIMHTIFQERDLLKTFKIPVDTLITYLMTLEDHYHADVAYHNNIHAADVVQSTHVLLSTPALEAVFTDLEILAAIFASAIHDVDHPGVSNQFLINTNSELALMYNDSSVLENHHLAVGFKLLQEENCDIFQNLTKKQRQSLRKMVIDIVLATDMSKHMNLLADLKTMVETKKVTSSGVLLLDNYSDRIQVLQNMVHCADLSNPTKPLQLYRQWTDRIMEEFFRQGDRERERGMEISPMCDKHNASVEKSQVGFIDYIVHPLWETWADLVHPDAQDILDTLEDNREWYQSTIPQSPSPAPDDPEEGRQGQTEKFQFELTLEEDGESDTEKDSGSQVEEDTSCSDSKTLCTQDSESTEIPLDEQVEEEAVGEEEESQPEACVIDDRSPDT

IC50	SMILES
> 1000 nM	COCCOc1ccc(-c2ccc(OC)c3nc(C4CC4)nn23)cc1 [Compound 122, 2-Cyclopropyl-8-methoxy-5-[4-(2-methoxy-ethoxy)-phenyl]-[1,2,4]triazolo[1,5-a]pyridine]
< 500 nM	COc1ccc(-c2ccc(C(N)=O)cc2)n2nc(C3CC3)nc12 [Compound 123, 4-(2-Cyclopropyl-8-methoxy-[1,2,4]triazolo[1,5-a]pyridin-5-yl)-benzamide]
500 to 1000 nM	COc1ccc(-c2ccccc2F)n2nc(C3CC3)nc12 [Compound 121, 2-Cyclopropyl-5-(2-fluoro-phenyl)-8-methoxy-[1,2,4]triazolo[1,5-a]pyridine]
< 500 nM	COc1ccc(-c2ccc(OC)c3nc(C4CC4)nn23)cc1OC [Compound 105, 2-Cyclopropyl-5-(3,4-dimethoxy-phenyl)-8-methoxy-[1,2,4]triazolo[1,5-a]pyridine]
> 1000 nM	COc1ccc(-c2ccc(S(=O)(=O)N3CCOCC3)cc2)n2nc(C3CC3)nc12 [Compound 128, 2-Cyclopropyl-8-methoxy-5-[4-(morpholine-4-sulfonyl)-phenyl]-[1,2,4]triazolo[1,5-a]pyridine]
< 500 nM	COc1ccc(-c2ccc(OC)c3nc(C4CC4)nn23)cc1 [Compound 103, 2-Cyclopropyl-8-methoxy-5-(4-methoxy-phenyl)-[1,2,4]triazolo[1,5-a]pyridine]
> 1000 nM	COc1ccc(-c2ccc(S(C)(=O)=O)cc2)n2nc(C3CC3)nc12 [Compound 120, 2-Cyclopropyl-5-(4-methanesulfonyl-phenyl)-8-methoxy-[1,2,4]triazolo[1,5-a]pyridine]

Same assay, conditions: Example 53; PDE4 assay as in example 52; read-out: PDE4 IC50 range

IC50	SMILES
< 500 nM	COc1ccc(-c2ccc(C#N)cc2)n2nc(C3(C(=O)NCCN(C)S(C)(=O)=O)CC3)nc12 [Compound 220, 1-[5-(4-Cyano-phenyl)-8-methoxy-[1,2,4]triazolo[1,5-a]pyridin-2-yl]-cyclopropanecarboxylic acid [2-(methanesulfonyl-methyl-amino)-ethyl]-amide]
500 to 1000 nM	COc1ccc(-c2cccc(C(C)=O)c2)n2nc(C3(C(=O)N4CCN(C)CC4)CC3)nc12 [Compound 222, 1-(3-{8-Methoxy-2-[1-(4-methyl-piperazine-1-carbonyl)-cyclopropyl]-[1,2,4]triazolo[1,5-a]pyridin-5-yl}-phenyl)-ethanone]
< 500 nM	COc1ccc(-c2cccc(C#N)c2)n2nc(C3(CNC(=O)C(C)C)CC3)nc12 [Compound 154, N-{1-[5-(3-Cyano-phenyl)-8-methoxy-[1,2,4]triazolo[1,5-a]pyridin-2-yl]-cyclopropylmethyl}-isobutyramide]
< 500 nM	COc1ccc(-c2ccc(C#N)cc2)n2nc(C3(C(=O)NCCC(=O)N4CCOCC4)CC3)nc12 [Compound 218, 1-[5-(4-Cyano-phenyl)-8-methoxy-[1,2,4]triazolo[1,5-a]pyridin-2-yl]-cyclopropanecarboxylic acid (3-morpholin-4-yl-3-oxo-propyl)-amide]
< 500 nM	COc1cc(C#N)cc(-c2ccc(OC)c3nc(C4CC4)nn23)c1 [Compound 169, 3-(2-Cyclopropyl-8-methoxy-[1,2,4]triazolo[1,5-a]pyridin-5-yl)-5-methoxy-benzonitrile]
< 500 nM	COc1cc(-c2ccc(OC)c3nc(C4(C(=O)NCC5CCCCC5)CC4)nn23)ccc1C#N [Compound 174, 1-[5-(4-Cyano-3-methoxy-phenyl)-8-methoxy-[1,2,4]triazolo[1,5-a]pyridin-2-yl]-cyclopropanecarboxylic acid cyclohexylmethyl-amide]
< 500 nM	COc1ccc(-c2cccc(C#N)c2)n2nc(C3(CNC(=O)OC4CCCC4)CC3)nc12 [Compound 155, {1-[5-(3-Cyano-phenyl)-8-methoxyl-[1,2,4]triazolo[1,5-a]pyridin-2-yl]-cyclopropylmethyl}-carbamic acid cyclopentyl ester]
< 500 nM	COc1ccc(-c2cncc(C#N)c2)n2nc(C3(COC(=O)NC(C)C)CC3)nc12 [Compound 232, Isopropyl-carbamic acid 1-[5-(5-cyano-pyridin-3-yl)-8-methoxy-[1,2,4]triazolo[1,5-a]pyridin-2-yl]-cyclopropylmethyl ester]
< 500 nM	COc1ccc(-c2ccc(C#N)cc2)n2nc(C3(C(=O)NCc4cccnc4)CC3)nc12 [Compound 203, 1-[5-(4-Cyano-phenyl)-8-methoxy-[1,2,4]triazolo[1,5-a]pyridin-2-yl]-cyclopropanecarboxylic acid (pyridin-3-ylmethyl)-amide]
< 500 nM	CCCNC(=O)OCC1(c2nc3c(OC)ccc(-c4cccc5c4CCC5=O)n3n2)CC1 [Compound 233, Propyl-carbamic acid 1-[8-methoxy-5-(1-oxo-indan-4-yl)-[1,2,4]triazolo[1,5-a]pyridin-2-yl]-cyclopropylmethyl ester]
> 1000 nM	COc1ccc(-c2ccc(C#N)cc2)n2nc(C3(C(=O)N4CCOCC4)CC3)nc12 [Compound 205, 4-{8-Methoxy-2-[1-(morpholine-4-carbonyl)-cyclopropyl]-[1,2,4]triazolo[1,5-a]pyridin-5-yl}-benzonitrile]
< 500 nM	COc1ccc(-c2cccc(C#N)c2)n2nc(C3(C(=O)NCCS(C)(=O)=O)CC3)nc12 [Compound 199, 1-[5-(3-Cyano-phenyl)-8-methoxy-[1,2,4]triazolo[1,5-a]pyridin-2-yl]-cyclopropanecarboxylic acid (2-methanesulfonyl-ethyl)-amide]
< 500 nM	COc1ccc(-c2cccc3c2CCC3=O)n2nc(C3(C(=O)NCCS(C)(=O)=O)CC3)nc12 [Compound 183, 1-[8-Methoxy-5-(1-oxo-indan-4-yl)-[1,2,4]triazolo[1,5-a]pyridin-2-yl]-cyclopropanecarboxylic acid (2-methanesulfonyl-ethyl)-amide]
500 to 1000 nM	COc1ccc(-c2cc(C#N)ccn2)n2nc(C3CC3)nc12 [Compound 145, 2-(2-Cyclopropyl-8-methoxy-[1,2,4]triazolo[1,5-a]pyridin-5-yl)-isonicotinonitrile]

The next lines start with the molecule.

SMILES	IC50
COc1ccc(-c2cccc(C(C)=O)c2)n2nc(C3(C(=O)N4CCOCC4)CC3)nc12 [Compound 223, 1-(3-{8-Methoxy-2-[1-(morpholine-4-carbonyl)-cyclopropyl]-[1,2,4]-triazolo[1,5-a]pyridin-5-yl}-phenyl)-ethanone]	< 500 nM
COc1ccc(-c2ccc3c(c2)CCC3=O)n2nc(C3(C(=O)NCCS(C)(=O)=O)CC3)nc12 [Compound 184, 1-[8-Methoxy-5-(1-oxo-indan-5-yl)-[1,2,4]triazolo[1,5-a]pyridin-2-yl]-cyclopropanecarboxylic acid (2-methanesulfonyl-ethyl)-amide]	< 500 nM
COc1ccc(-c2cncc(C#N)c2)n2nc(C3CC3)nc12 [Compound 159, 5-(2-Cyclopropyl-8-methoxy-[1,2,4]triazolo[1,5-a]pyridin-5-yl)-nicotinonitrile]	< 500 nM
COc1ccc(-c2ccc(C#N)c(F)c2)n2nc(C3CC3)nc12 [Compound 165, 4-(2-Cyclopropyl-8-methoxyl-[1,2,4]-triazolo[1,5-a]pyridin-5-yl)-2-fluoro-benzonitrile]	< 500 nM
COc1ccc(-c2cc(C#N)cc(CO)c2)n2nc(C3CC3)nc12 [Compound 168, 3-(2-Cyclopropyl-8-methoxy-[1,2,4]triazolo[1,5-a]pyridin-5-yl)-5-hydroxymethyl-benzonitrile]	< 500 nM
CCOC(=O)C1(c2nc3c(OC)ccc(-c4cccc(C(C)=O)c4)n3n2)CC1 [Compound 190, 1-[5-(3-Acetyl-phenyl)-8-methoxy-[1,2,4]triazolo[1,5-a]pyridin-2-yl]-cyclopropanecarboxylic acid ethyl ester]	< 500 nM
COc1cc(-c2ccc(OC)c3nc(C4CC4)nn23)ccc1C#N [Compound 166, 4-(2-Cyclopropyl-8-methoxy-[1,2,4]triazolo[1,5-a]pyridin-5-yl)-2-methoxy-benzonitrile]	< 500 nM
COc1ccc(-c2cccc3c2CCC3=O)n2nc(C3(C(=O)NC(C)C)CC3)nc12 [Compound 180, 1-[8-Methoxy-5-(1-oxo-indan-4-yl)-[1,2,4]triazolo[1,5-a]pyridin-2-yl]-cyclopropanecarboxylic acid isopropylamide]	< 500 nM
CCOC(=O)C1(c2nc3c(OC)ccc(-c4cccc(C#N)c4)n3n2)CC1 [Compound 188, 1-[5-(3-Cyano-phenyl)-8-methoxy-[1,2,4]triazolo[1,5-a]pyridin-2-yl]-cyclopropanecarboxylic acid ethyl ester]	< 500 nM
COc1ccc(-c2ccc(C#N)cc2)n2nc(C3(C(=O)NCCNC(C)=O)CC3)nc12 [Compound 216, 1-[5-(4-Cyano-phenyl)-8-methoxy-[1,2,4]triazolo[1,5-a]pyridin-2-yl]-cyclopropanecarboxylic acid (2-acetylamino-ethyl)-amide]	< 500 nM
COc1ccc(-c2cncc(C#N)c2)n2nc(C3(C(=O)NC(C)C)CC3)nc12 [Compound 149, 1-[5-(5-Cyano-pyridin-3-yl)-8-methoxy-[1,2,4]triazolo[1,5-a]pyridin-2-yl]-cyclopropanecarboxylic acid isopropylamide]	< 500 nM
COc1ccc(-c2ccc3c(c2)CCC3=O)n2nc(C3(C(=O)NC(C)C)CC3)nc12 [Compound 181, 1-[8-Methoxy-5-(1-oxo-indan-5-yl)-[1,2,4]triazolo[1,5-a]pyridin-2-yl]-cyclopropanecarboxylic acid isopropylamide]	< 500 nM
COc1cc(-c2ccc(OC)c3nc(C4(C(=O)NC(C)C)CC4)nn23)ccc1C#N [Compound 175, 1-[5-(4-Cyano-3-methoxy-phenyl)-8-methoxy-[1,2,4]triazolo[1,5-a]pyridin-2-yl]-cyclopropanecarboxylic acid isopropylamide]	< 500 nM
COc1ccc(-c2ccc(C#N)cc2)n2nc(C3(C(=O)NCC(C)C)CC3)nc12 [Compound 214, 1-[5-(4-Cyano-phenyl)-8-methoxy-[1,2,4]triazolo[1,5-a]pyridin-2-yl]-cyclopropanecarboxylic acid isobutyl-amide]	< 500 nM
